The subject of experiment [1] is Notch-processing activity of the γ-secretase-complex. Kind of experiment: Notch cell-free assay (NICD production from recombinant Notch substrate N99). Format: biochemical, mouse. The following applies: 1 μM test compound, 0.3-0.5 μM Notch substrate, 37° C. for 6 to 22 h, western blotting. On the procedure:
The Notch transmembrane domain is cleaved by gamma secretase to release
Notch Intracellular C-terminal Domain (NICD).
To monitor the effect of compounds on NICD production, a recombinant Notch substrate (N99) was prepared. The Notch substrate, comprised of mouse Notch fragment (V1711-E1809), an N-terminal methionine and a C-terminal FLAG sequence ([…]), was expressed in E. coli and purified on a column containing an anti-FLAG M2 affinity matrix.
A typical Notch cell-free assay consisted of 0.3-0.5 μM Notch substrate, an enriched preparation of γ secretase and 1 μM of a test compound (compounds 8, 15, 92, 108, 114 and 130 of the present invention). Controls included a γ secretase inhibitor (GSI), such as (2S)—N-[2-(3,5-difluorophenyeacetyl]-L-alanyl-2-phenyl-glycine 1,1-dimethylethyl ester (DAPT) or (2S)-2-hydroxy-3-methyl-N-[(1S)-1-methyl-2-oxo-2-[[(1S)-2,3,4,5-tetrahydro-3-methyl-2-oxo-1H-3-benzazepin-1-yl]amino]ethyl]-butanamide (Semagacestat), and DMSO, the final concentration of DMSO being 1%. Recombinant Notch substrate was pre-treated with 17 μM DTT (1,4-dithiothreitol) and 0.02% SDS (Sodium Dodecyl Sulfate) and heated at 65° C. for 10 min. The mixture of substrate, gamma secretase and compound/DMSO was incubated at 37° C. for 6 to 22 hours (h). 6 h incubation was sufficient to produce the maximal amount of NICD and the cleaved product remained stable for an additional 16 h. Reaction products were processed for SDS PAGE (Sodium Dodecyl Sulfate-Poly Acrylamide Gel Electrophoresis) and western blotting. Blots were probed with an anti-Flag M2 antibody, followed by LI-COR infrared secondary antibody, and analyzed with the Odyssey Infrared Imaging System (LI-COR® Biosciences).

Experiment [2] concerns T1, Notch-processing activity of the γ-secretase-complex.
T1 construct: average IC50 Notch cell-based assay (luciferase readout); other: N2-CHO/DL-CHO co-culture 16 h; five-point curve 3 μM-
Kind of experiment: Notch cell-based assay (N2-CHO/DL-CHO co-culture, Dual-Glo luciferase). More on the design: species or system mouse. The following applies: N2-CHO/DL-CHO co-culture 16 h; read-out: average IC50 Notch cell-based assay (luciferase readout). The text has this: The Notch cell-based assay was based on the interaction of Notch and its ligand in a co-culture system and utilized the Dual-Glo Luciferase Assay System (Promega) to monitor NICD production. 2 stable cell lines, N2-CHO and DL-CHO, were established to express full-length mouse Notch2 and Delta respectively. Cells that expressed mouse Notch were also transfected with 2 plasmids, pTP1-Luc and pCMV-RLuc, to express firefly and Renilla luciferase. Expression of firefly luciferase was under the control of TP1 promoter that responded to NICD activation.
N2-CHO cells were seeded at 1×10^5/well in 24-well plates the day before transfection. On the second day, cells were double transfected with 3 μg/well pTP1-Luc (expressing firefly luciferase) and 0.3 ng/well pCMV-RLuc (expressing Renilla luciferase). After 6 h incubation, transfected N2-CHO cells were washed and DL-CHO cells (2×10^5 cells/well) were added.
Compounds were pre-mixed with DL-CHO cell suspension in a five-point curve. Typically, compound treatment was performed in duplicate with a serial 1:10 dilution (3 μM-0.3 nM) in DMSO. The final concentration of DMSO in a given culture was 1%. Controls included non-transfected cells and transfected cells treated with a GSI or DMSO only. Luciferase assays were performed after 16 h co-culture and compound treatment.
The luciferase assay was carried out according to manufacture's instructions. Briefly, cells were washed with PBS (Phosphate Buffered Saline), lysed with Passive Lysis Buffer (Promega), and incubated at room temperature for 20 min. Lysates were mixed with Dual-Glo Luciferase Reagent and the firefly luciferase activity was measured by reading the luminescence signal in the EnVision 2101 Multilabel reader. Dual-Glo Stop & Glo Reagent was then added to each well and the Renilla luciferase signal was measured.

Structures are written as SMILES.

`CC(C)[C@H](O)C(=O)N[C@@H](C)C(=O)N[C@@H]1C(=O)N(C)CCc2ccccc21` [Semagacestat, (2S)-2-hydroxy-3-methyl-N-[(1S)-1-methyl-2-oxo-2-[[(1S)-2,3,4,5-tetrahydro-3-methyl-2-oxo-1H-3-benzazepin-1-yl]amino]ethyl]-butanamide, reference compound]: the “effect on the Notch-processing activity of the γ-secretase-complex (production of NICD)” value in experiment [1] was “blocked”. For the same compound, the IC50 in experiment [2] came out at 40 nM.
For `CC(NC(=O)Cc1cc(F)cc(F)c1)C(=O)NC(C(=O)OC(C)(C)C)c1ccccc1` [DAPT, (2S)—N-[2-(3,5-difluorophenyeacetyl]-L-alanyl-2-phenyl-glycine 1,1-dimethylethyl ester, reference compound] the same measures were “blocked” and 45 nM.

As a reminder, the IC50 is the concentration that inhibits the measured activity by half.

The record behind these values is US8772504B2, “Substituted benzoxazole, benzimidazole, oxazolopyridine and imidazopyridine derivatives as gamma secretase modulators” (Janssen Pharmaceuticals, Inc., priority 2009, dated 2014).
